Where two headings read alike, the source gives them in different places.
How the values were obtained:
[1] = test system: HIV-1 NL4-3 gag A364V virus; assay: microbe, parasite or virus in culture; format: cell-based
Protocol: (§1) MT-2 cells and 293T cells were obtained from the NIH AIDS Research and Reference Reagent Program. MT-2 cells were propagated in RPMI 1640 media supplemented with 10% heat-inactivated fetal bovine serum, […]. The 293T cells were propagated in DMEM media supplemented with 10% heat-inactivated fetal bovine serum (FBS), 100 units/mL penicillin G and 100 μg/mL streptomycin. […] A recombinant NL4-3 virus, in which a section of the nef gene from NL4-3 was replaced with the Renilla luciferase gene, was used as a reference virus. In addition, residue Gag P373 was converted to P373S. […] Transfections were performed in 293T cells using LipofectAMINE PLUS from Invitrogen (Carlsbad, Calif.), according to manufacturer's instruction. The virus was titered in MT-2 cells using luciferase enzyme activity as a marker. Luciferase was quantitated using the Dual Luciferase kit from Promega (Madison, Wis.), with modifications to the manufacturer's protocol. The diluted Passive Lysis solution was pre-mixed with the re-suspended Luciferase Assay Reagent and the re-suspended Stop & Glo Substrate (2:1:1 ratio). Fifty (50) μL of the mixture was added to each aspirated well on assay plates and luciferase activity was measured immediately on a Wallac TriLux (Perkin-Elmer). Antiviral activities of inhibitors toward the recombinant virus were quantified by measuring luciferase activity in cells infected for 4-5 days with NLRluc recombinants in the presence serial dilutions of the inhibitor.
Both recombinant viruses were used as described above in the HIV cell culture assay for the NL4-3 virus.

[2] = test system: WT (wild-type HIV virus; recombinant NL4-3 virus); assay: microbe, parasite or virus in culture; format: cell-based, HIV-1
Protocol: as §1
WT refers to wild-type HIV virus. […]

[3] = Human immunodeficiency virus 1, NL43, MT2, read-out: A364V (EC50, uM), Table 1 regular screen, MT-2 cells, luciferase readout
[4] = Human immunodeficiency virus 1, NL43, MT2, read-out: WT (EC50, uM), Table 1 regular screen, MT-2 cells, luciferase readout
[5] = Human immunodeficiency virus 1, NL43, MT2, read-out: A364V (EC50, uM), Table 1 regular screen, class symbol
[6] = Human immunodeficiency virus 1, NL43, MT2, read-out: WT (EC50, uM), Table 1 regular screen, class symbol

Row | Structure (SMILES) | EC50 [1, 3] [µM] | EC50 [2, 4] [µM] | EC50 [1, 5] [µM] | EC50 [2, 6] [µM]
1 | C=C(C)[C@@H]1CC[C@]2(NCCN3CCC(C)(O)CC3)CC[C@]3(C)[C@H](CC[C@@H]4[C@@]5(C)CC=C(C6=CC[C@](CF)(C(=O)O)CC6)C(C)(C)[C@@H]5CC[C@]43C)[C@@H]12 [Example 2-23, (S)-1-(fluoromethyl)-4-((1R,3aS,5aR,5bR,7aR,11aS,11bR,13aR,13bR)-3a-((2-(4-hydroxy-4-methylpiperidin-1-yl)ethyl)amino)-5a,5b,8,8,11a-pentamethyl-1-(prop-1-en-2-yl)-2,3,3a,4,5,5a,5b,6,7,7a,8,11,11a,11b,12,13,13a,13b-octadecahydro-1H-cyclopenta[a]chrysen-9-yl)cyclohex-3-enecarboxylic acid] | 0.0597 | 0.00121 | – | –
2 | C=C(C)[C@@H]1CC[C@]2(NCCN3CCOC3=O)CC[C@]3(C)[C@H](CC[C@@H]4[C@@]5(C)CC=C(C6=CC[C@](CF)(C(=O)O)CC6)C(C)(C)[C@@H]5CC[C@]43C)[C@@H]12 [Example 2-24, (S)-1-(fluoromethyl)-4-((1R,3aS,5aR,5bR,7aR,11aS,11bR,13aR,13bR)-5a,5b,8,8,11a-pentamethyl-3a-((2-(2-oxooxazolidin-3-yl)ethyl)amino)-1-(prop-1-en-2-yl)-2,3,3a,4,5,5a,5b,6,7,7a,8,11,11a,11b,12,13,13a,13b-octadecahydro-1H-cyclopenta[a]chrysen-9-yl)cyclohex-3-enecarboxylic acid] | 0.932 | 0.0053 | – | –
3 | C=C(C)[C@@H]1CC[C@]2(NCCN3CCNC3=O)CC[C@]3(C)[C@H](CC[C@@H]4[C@@]5(C)CC=C(C6=CC[C@](CF)(C(=O)O)CC6)C(C)(C)[C@@H]5CC[C@]43C)[C@@H]12 [Example 2-25, (S)-1-(fluoromethyl)-4-((1R,3aS,5aR,5bR,7aR,11aS,11bR,13aR,13bR)-5a,5b, 8,8,11a-pentamethyl-3a-((2-(2-oxoimidazolidin-1-yl)ethyl)amino)-1-(prop-1-en-2-yl)-2,3,3a,4,5,5a,5b,6,7,7a,8,11,11a,11b,12,13,13a,13b-octadecahydro-1H-cyclopenta[a]chrysen-9-yl)cyclohex-3-enecarboxylic acid] | – | – | > 0.05 | < 0.05
4 | C=C(C)[C@@H]1CC[C@]2(NCCN3CCN(C)C3=O)CC[C@]3(C)[C@H](CC[C@@H]4[C@@]5(C)CC=C(C6=CC[C@](CF)(C(=O)O)CC6)C(C)(C)[C@@H]5CC[C@]43C)[C@@H]12 [Example 2-26, (S)-1-(fluoromethyl)-4-((1R,3aS,5aR,5bR,7aR,11aS,11bR,13aR,13bR)-5a,5b,8,8,11a-pentamethyl-3a-((2-(3-methyl-2-oxoimidazolidin-1-yl)ethyl)amino)-1-(prop-1-en-2-yl)-2,3,3a,4,5,5a,5b,6,7,7a,8,11,11a,11b,12,13,13a,13b-octadecahydro-1H-cyclopenta[a]chrysen-9-yl)cyclohex-3-enecarboxylic acid] | – | – | > 0.05 | < 0.05
5 | C=C(C)[C@@H]1CC[C@]2(NCCN3CCN(C(C)=O)C(C)(C)C3=O)CC[C@]3(C)[C@H](CC[C@@H]4[C@@]5(C)CC=C(C6=CC[C@](CF)(C(=O)O)CC6)C(C)(C)[C@@H]5CC[C@]43C)[C@@H]12 [Example 2-27, (S)-4-((1R,3aS,5aR,5bR,7aR,11aS,11bR,13aR,13bR)-3a-((2-(4-acetyl-3,3-dimethyl-2-oxopiperazin-1-yl)ethyl)amino)-5a,5b, 8,8,11a-pentamethyl-1-(prop-1-en-2-yl)-2,3,3a,4,5,5a,5b,6,7,7a,8,11,11a,11b,12,13,13a,13b-octadecahydro-1H-cyclopenta[a]chrysen-9-yl)-1-(fluoromethyl)cyclohex-3-enecarboxylic acid] | 0.0201 | 0.00577 | – | –
6 | C=C(C)[C@@H]1CC[C@]2(NCCN3CCOCC3)CC[C@]3(C)[C@H](CC[C@@H]4[C@@]5(C)CC=C(C6=CC[C@](CF)(C(=O)O)CC6)C(C)(C)[C@@H]5CC[C@]43C)[C@@H]12 [Example 3, (S)-1-(fluoromethyl)-4-((1R,3aS,5aR,5bR,7aR,11aS,11bR,13aR,13bR)-5a,5b,8,8,11a-pentamethyl-3a-((2-morpholinoethyl)amino)-1-(prop-1-en-2-yl)-2,3,3a,4,5,5a,5b,6,7,7a,8,11,11a,11b,12,13,13a,13b-octadecahydro-1H-cyclopenta[a]chrysen-9-yl)cyclohex-3-enecarboxylic acid] | 0.679 | 0.00453 | – | –
7 | C=C(C)[C@@H]1CC[C@]2(NCCC3CCS(=O)(=O)CC3)CC[C@]3(C)[C@H](CC[C@@H]4[C@@]5(C)CC=C(C6=CC[C@](CF)(C(=O)O)CC6)C(C)(C)[C@@H]5CC[C@]43C)[C@@H]12 [Example 7, (S)-4-((1R,3aS,5aR,5bR,7aR,11aS,11bR,13aR,13bR)-3a-((2-(1,1-dioxidotetrahydro-2H-thiopyran-4-yl)ethyl)amino)-5a,5b,8,8,11a-pentamethyl-1-(prop-1-en-2-yl)-2,3,3a,4,5,5a,5b,6,7,7a,8,11,11a,11b,12,13,13a,13b-octadecahydro-1H-cyclopenta[a]chrysen-9-yl)-1-(fluoromethyl)cyclohex-3-enecarboxylic acid] | – | – | > 0.05 | < 0.05
8 | C=C(C)[C@@H]1CC[C@]2(NC(=O)CC3CCOCC3)CC[C@]3(C)[C@H](CC[C@@H]4[C@@]5(C)CC=C(C6=CC[C@](CF)(C(=O)O)CC6)C(C)(C)[C@@H]5CC[C@]43C)[C@@H]12 [Example 8, (S)-1-(fluoromethyl)-4-((1R,3aS,5aR,5bR,7aR,11aS,11bR,13aR,13bR)-5a,5b,8,8,11a-pentamethyl-1-(prop-1-en-2-yl)-3a-(2-(tetrahydro-2H-pyran-4-yl)acetamido)-2,3,3a,4,5,5a,5b,6,7,7a,8,11,11a,11b,12,13,13a,13b-octadecahydro-1H-cyclopenta[a]chrysen-9-yl)cyclohex-3-enecarboxylic acid] | – | – | > 0.05 | > 0.05
9 | C=C(C)[C@@H]1CC[C@]2(NCCC3CCOCC3)CC[C@]3(C)[C@H](CC[C@@H]4[C@@]5(C)CC=C(C6=CC[C@](CF)(C(=O)O)CC6)C(C)(C)[C@@H]5CC[C@]43C)[C@@H]12 [Example 9, (S)-1-(fluoromethyl)-4-((1R,3aS,5aR,5bR,7aR,11aS,11bR,13aR,13bR)-5a,5b,8,8,11a-pentamethyl-1-(prop-1-en-2-yl)-3a-((2-(tetrahydro-2H-pyran-4-yl)ethyl)amino)-2,3,3a,4,5,5a,5b,6,7,7a,8,11,11a,11b,12,13,13a,13b-octadecahydro-1H-cyclopenta[a]chrysen-9-yl)cyclohex-3-enecarboxylic acid] | – | – | > 0.05 | < 0.05
10 | C=C(C)[C@@H]1CC[C@]2(CNCC(C)(C)N3CCS(=O)(=O)CC3)CC[C@]3(C)[C@H](CC[C@@H]4[C@@]5(C)CC=C(C6=CC[C@](CF)(C(=O)O)CC6)C(C)(C)[C@@H]5CC[C@]43C)[C@@H]12 [Example 10, (S)-4-((1R,3aS,5aR,5bR,7aR,11aS,11bR,13aR,13bR)-3a-(((2-(1,1-dioxidothiomorpholino)-2-methylpropyl)amino)methyl)-5a,5b, 8,8,11a-pentamethyl-1-(prop-1-en-2-yl)-2,3,3a,4,5,5a,5b,6,7,7a,8,11,11a,11b,12,13,13a,13b-octadecahydro-1H-cyclopenta[a]chrysen-9-yl)-1-(fluoromethyl)cyclohex-3-enecarboxylic acid] | – | – | < 0.05 | < 0.05
